Reference: the supplement of paper PMC11061612

Columns and labels:
Test in all cases: combination Emax (second highest fraction inhibited in the dose matrix, 72 h); higher = more inhibition; extreme values may be limits of the assay
[1] = tested on: MFM-223 (Breast Carcinoma)
Outline: (§1)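 Cell lines grown in DMEM/F12 or RPMI with 10% FBS were plated in 1536-well plates and held 24 hours at 37°C, 5% CO2 before 72 hours of exposure to two-drug dose matrices, with DMSO typically at 0.2%. CellTiter-Glo 2.0 luminescence gave viability, which was converted to inhibition. Vehicle wells were set to 0 and blank wells to 1. Combination Emax is the second-highest inhibition in the matrix, and Bliss excess is the observed combination effect minus the expected EA + EB − EA·EB, where EA and EB are the single-agent effects.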

[2] = tested on: TE-6 (Esophageal Squamous Cell Carcinoma)
Outline: as §1

[3] = tested on: DiFi (Colorectal Carcinoma)
Outline: as §1

[4] = tested on: TOV-112D (Ovarian Carcinoma)
Outline: as §1

NCI-H2818 (Mesothelioma) = tested on: NCI-H2818 (Mesothelioma)
Outline: as §1

WM-115 (Melanoma) = tested on: WM-115 (Melanoma)
Outline: as §1

[5] = tested on: EVSA-T (Breast Carcinoma)
Outline: as §1

[6] = tested on: BFTC-905 (Bladder Carcinoma)
Outline: as §1

TC-71 (Ewing's Sarcoma) = tested on: TC-71 (Ewing's Sarcoma)
Outline: as §1

WIL2-NS (Non-Cancerous) = tested on: WIL2-NS (Non-Cancerous)
Outline: as §1

[7] = tested on: MS751 (Cervical Carcinoma)
Outline: as §1

[8] = tested on: KYSE-180 (Esophageal Squamous Cell Carcinoma)
Outline: as §1

[9] = tested on: SU-DHL-8 (B-Cell Non-Hodgkin's Lymphoma)
Outline: as §1

[10] = tested on: MOLT-16 (T-Lymphoblastic Leukemia)
Outline: as §1

[11] = tested on: SW837 (Colorectal Carcinoma)
Outline: as §1

[12] = tested on: DND-41 (T-Lymphoblastic Leukemia)
Outline: as §1

[13] = tested on: L-540 (Hodgkin's Lymphoma)
Outline: as §1

[14] = tested on: CAMA-1 (Breast Carcinoma)
Outline: as §1

[15] = tested on: MKN28 (Gastric Carcinoma)
Outline: as §1

[16] = tested on: HL-60 (Acute Myeloid Leukemia)
Outline: as §1

Structure (SMILES)	combination Emax [1]	combination Emax [2]	combination Emax [3]	combination Emax [4]	combination Emax (NCI-H2818 (Mesothelioma))	combination Emax (WM-115 (Melanoma))	combination Emax [5]	combination Emax [6]	combination Emax (TC-71 (Ewing's Sarcoma))	combination Emax (WIL2-NS (Non-Cancerous))	combination Emax [7]	combination Emax [8]	combination Emax [9]	combination Emax [10]	combination Emax [11]	combination Emax [12]	combination Emax [13]	combination Emax [14]	combination Emax [15]	combination Emax [16]
CN(C)CCCOc1ccc(-c2ccc3ncc4c(c3c2)n(C2CCOCC2)c(=O)n4C)cn1 [AZD0156] + C=CCn1c(=O)c2cnc(Nc3ccc(N4CCN(C)CC4)cc3)nc2n1-c1cccc(C(C)(C)O)n1 [AZD1775] (first compound max 1 µM, partner max 1 µM)	0.653	0.232	0.637	0.475	0.327	0.254	0.221	0.517	0.452	0.976	0.155	0.749	0.888	1	0.237	0.848	0.954	0.104	0.481	0.387
CN(C)CCCOc1ccc(-c2ccc3ncc4c(c3c2)n(C2CCOCC2)c(=O)n4C)cn1 [AZD0156] + CCN(CCO)CCCOc1ccc2c(Nc3cc(CC(=O)Nc4cccc(F)c4)[nH]n3)ncnc2c1 [AZD2811] (first compound max 1 µM, 7x7, partner max 1 µM)	0.168	0.236	0.416	0.35	0.16	0.183	0.269	0.428	0.837	0.201	0.326	0.0693	0.253	1	0.0741	0.206	0.366	0.14	0.135	0.832
CN(C)CCCOc1ccc(-c2ccc3ncc4c(c3c2)n(C2CCOCC2)c(=O)n4C)cn1 [AZD0156] + C[C@@H]1COCCN1C2=NC(=NC(=C2)C3(CC3)[S@](=N)(=O)C)C4=C5C=CNC5=NC=C4 [AZD6738] (first compound max 1 µM, 7x7, partner max 10 µM)	0.828	0.636	0.829	0.717	0.324	0.488	0.495	0.891	0.952	0.988	0.271	0.915	0.892	1	0.466	0.844	0.93	0.273	0.471	0.751
CN(C)CCCOc1ccc(-c2ccc3ncc4c(c3c2)n(C2CCOCC2)c(=O)n4C)cn1 [AZD0156] + O=C(c1cc(Cc2n[nH]c(=O)c3ccccc23)ccc1F)N1CCN(C(=O)C2CC2)CC1 [Olaparib] (first compound max 3 µM, partner max 3 µM)	0.179	0.417	0.223	0.552	0.38	0.356	0.234	0.544	0.804	0.6	0.232	0.233	0.266	0.914	0.185	0.372	0.406	0.285	0.0496	0.489
C=CCn1c(=O)c2cnc(Nc3ccc(N4CCN(C)CC4)cc3)nc2n1-c1cccc(C(C)(C)O)n1 [AZD1775] + C1CN(CCC1(C(=O)N[C@@H](CCO)C2=CC=C(C=C2)Cl)N)C3=NC=NC4=C3C=CN4 [Capivasertib] (first compound max 3 µM, partner max 3 µM)	0.711	0.736	0.643	0.889	0.493	0.536	0.958	0.904	0.92	0.953	0.899	0.8	0.953	1	0.692	0.899	0.862	0.775	0.609	0.849
CN(CCO)CC[C@H](CSc1ccccc1)Nc1ccc(S(=O)(=O)NC(=O)c2ccc(N3CCC([C@@H](O)c4ccccc4-c4ccc(Cl)cc4)CC3)cc2)cc1S(=O)(=O)C(F)(F)F [AZD4320] + C1CN(CCC1(C(=O)N[C@@H](CCO)C2=CC=C(C=C2)Cl)N)C3=NC=NC4=C3C=CN4 [Capivasertib] (first compound max 1 µM, 7x7, partner max 3 µM)	0.741	0.633	0.804	0.131	0.184	0.829	0.924	0.0682	0.544	0.535	0.132	0.32	0.916	1	0.104	1	0.279	0.821		0.873
CN(CCO)CC[C@H](CSc1ccccc1)Nc1ccc(S(=O)(=O)NC(=O)c2ccc(N3CCC([C@@H](O)c4ccccc4-c4ccc(Cl)cc4)CC3)cc2)cc1S(=O)(=O)C(F)(F)F [AZD4320] + CCN(CCO)CCCOc1ccc2c(Nc3cc(CC(=O)Nc4cccc(F)c4)[nH]n3)ncnc2c1 [AZD2811] (first compound max 1 µM, 7x7, partner max 1 µM)	0.693	0.524	0.882	0.485	0.191	0.453	0.704	0.856		0.311	0.348	0.181	1	1	0.508	1	0.594	0.616	0.184	0.958
CN(CCO)CC[C@H](CSc1ccccc1)Nc1ccc(S(=O)(=O)NC(=O)c2ccc(N3CCC([C@@H](O)c4ccccc4-c4ccc(Cl)cc4)CC3)cc2)cc1S(=O)(=O)C(F)(F)F [AZD4320] + C[C@@H](Nc1cc(F)cc(F)c1)c1cc(C(=O)N(C)C)cc2c(=O)cc(N3CCOCC3)oc12 [AZD8186] (first compound max 1 µM, 7x7, partner max 3 µM)		0.563	0.961	0.205	0.365	0.914	0.885	0.851	1	0.652	0.3	0.177	1	1	0.395	1	0.668	0.84	0.263	0.958
CN(CCO)CC[C@H](CSc1ccccc1)Nc1ccc(S(=O)(=O)NC(=O)c2ccc(N3CCC([C@@H](O)c4ccccc4-c4ccc(Cl)cc4)CC3)cc2)cc1S(=O)(=O)C(F)(F)F [AZD4320] + Cn1cnc2c(F)c(Nc3ccc(Br)cc3Cl)c(C(=O)NOCCO)cc21 [Selumetinib] (first compound max 1 µM, 7x7, partner max 3 µM)		0.593	0.951	0.248	0.31	0.878	0.506	0.825	0.985	0.633	0.413	0.19	0.988	1	0.489	1	0.716	0.468	0.356	0.994
COc1nnc2ccc(N3CCC(c4ccc(OCCN5CCN(C)C(=O)[C@H]5C)cc4)CC3)nn12 [AZD5153] + CN(CC[C@H](CSC1=CC=CC=C1)NC2=C(C=C(C=C2)S(=O)(=O)NC(=O)C3=CC=C(C=C3)N4CCC(CC4)[C@H](C5=CC=CC=C5C6=CC=C(C=C6)Cl)O)S(=O)(=O)C(F)(F)F)CCO [AZD4320] (first compound max 1 µM, 7x7, partner max 1 µM)	0.544	0.81	0.818	0.664			0.938		0.814		0.726	0.326	1	1						0.994
CC(=O)c1c(C)c2cnc(Nc3ccc(N4CCNCC4)cn3)nc2n(C2CCCC2)c1=O [Palbociclib] + CN(CC[C@H](CSC1=CC=CC=C1)NC2=C(C=C(C=C2)S(=O)(=O)NC(=O)C3=CC=C(C=C3)N4CCC(CC4)[C@H](C5=CC=CC=C5C6=CC=C(C=C6)Cl)O)S(=O)(=O)C(F)(F)F)CCO [AZD4320] (first compound max 10 µM, 7x7, partner max 1 µM)	0.406	0.363	0.812	0.584			0.444		0.828		0.159	0.462	1	1						0.956
CCc1c2c(nc3ccc(O)cc13)-c1cc3c(c(=O)n1C2)COC(=O)[C@]3(O)CC [SN-38] + O=C(c1cc(Cc2n[nH]c(=O)c3ccccc23)ccc1F)N1CCN(C(=O)C2CC2)CC1 [Olaparib] (first compound max 0.3 µM, 7x7, partner max 10 µM)	0.257		0.701	0.965	0.359	0.391	0.784	0.974		1	0.899	0.527			0.506	0.947	0.965	0.299	0.553	
C[C@@H](c1ccc2nccn2c1)n1nnc2ncc(-c3cnn(C)c3)nc21 [Savolitinib] + CN(CC[C@H](CSC1=CC=CC=C1)NC2=C(C=C(C=C2)S(=O)(=O)NC(=O)C3=CC=C(C=C3)N4CCC(CC4)[C@H](C5=CC=CC=C5C6=CC=C(C=C6)Cl)O)S(=O)(=O)C(F)(F)F)CCO [AZD4320] (first compound max 1 µM, 7x7, partner max 1 µM)	0.225	0.427	0.495	0.0682			0.248		0.585		0.184	0.13	0.932	1						0.856
